13 molecules from patent US20250051283A1, “THERAPEUTIC COMPOUNDS AND METHODS” (priority 2023, published 2025) can be followed below.

The first experiment has as its system EV-D68 US/MO/14-18947. Put plainly: CPE assay (neutral red) with EV-D68 US/MO/14-18947 in R.D. cells. The experiment is classed as cell-based, Enterovirus D68. As to conditions: CPE assay, EV-D68 US/MO/14-18947 in R.D. cells; read-out: Antiviral EC50. Here is the method:
Cell lines and viruses. Human rhabdomyosarcoma (R.D., ATCC, CCL-136) cells were maintained at 37° C. in a 5% CO2 atmosphere and cultured in Dulbecco's modified Eagle's medium (DMEM) supplemented with 10% fetal bovine serum (FBS) and 1% penicillin-streptomycin antibiotics. The following reagents were obtained through BEI Resources, NIAID, NIH: Human Enterovirus D68, US/MO/14-18949, NR-49130; Enterovirus D68, US/MO/14-18947, NR-49129; Enterovirus D68, US/IL/14-18952, NR-49131; Enterovirus D68, US/KY/14-18953, NR-49132; Enterovirus D68, US/IL/14-18956, NR-49133.
Antiviral assays. Cells for antiviral assays were seeded and grown overnight at 37° C. in a 5% CO2 atmosphere for ˜90% confluency the next day. For all infections, cells were washed with PBS containing magnesium and calcium and infected with virus diluted in DMEM with 2% FBS and 30 mM MgCl2. Viruses were incubated for at least 1 h at 33° C. in a 5% CO2 atmosphere, followed by the addition of compound as well as 1% penicillin-streptomycin. For CC50 measurements, the experiment was performed similarly but excluded viral infection. For cytopathic effect (CPE) assays, cells were stained with 66 µg/mL neutral red for 2 h and neutral red uptake was measured at absorbance 540 nm using a Multiskan FC Microplate Photometer (ThermoFisher Scientific). The EC50 and CC50 values were calculated from best-fit dose response curves using GraphPad Prism. For plaque reduction assays, an 1.2% avicel microcrystalline cellulose (FMC BioPolymer, Philadelphia, PA) overlay was used and cells were stained after 3 days as previously described^26.
On to `CCC[C@H](NC(=O)[C@@H]1[C@H]2CCC[C@H]2CN1C(=O)[C@@H](NC(=O)C[C@@]12C[C@@H]3C[C@@H](C[C@@](O)(C3)C1)C2)C(C)(C)C)C(=O)C(=O)NC1CC1` [Jun922, (1S,3aR,6aS)—N—((S)-1-(cyclopropylamino)-1,2-dioxohexan-3-yl)-2-((S)-2-(2-((1r,3R,5R,7S)-3-hydroxyadamantan-1-yl)acetamido)-3,3-dimethylbutanoyl)octa-hydrocyclopenta[c]pyrrole-1-carboxamide], for which the EC50 turned out to be 1850 nM. With `CCC[C@H](NC(=O)[C@@H]1[C@H]2CCC[C@H]2CN1C(=O)[C@@H](NC(=O)CC1C2CC3CC(C2)CC1C3)C(C)(C)C)C(=O)C(=O)NC1CC1` (stereo partly drawn) [Jun1024, (1S)-2-((S)-2-(2-((1S,3S,5S,7S)-adamantan-2-yl)acetamido)-3,3-dimethylbutanoyl)-N—((S)-1-(cyclopropylamino)-1,2-dioxohexan-3-yl)octahydrocyclopenta[c]pyrrole-1-carboxamide], the EC50 came out at 180 nM.

Staying with this experiment, now noted: Enterovirus D, EVD68, RD, read-out: Antiviral EC50, CPE assay, EV-D68 US/MO/14-18947 in R.D. cells.
In the case of `CCC[C@H](NC(=O)[C@@H]1[C@H]2CCC[C@H]2CN1C(=O)[C@@H](NC(=O)[C@@H](NC(=O)OCc1ccccc1)C1CCCCC1)C(C)(C)C)C(=O)C(=O)NC1CC1` [Jun7453, Benzyl ((S)-1-cyclohexyl-2-(((S)-1-((1S,3aR,6aS)-1-(((S)-1-(cyclopropylamino)-1,2-dioxohexan-3-yl)carbamoyl)hexahydrocyclopenta[c]pyrrol-2(1H)-yl)-3,3-dimethyl-1-oxobutan-2-yl)amino)-2-oxoethyl)carbamate], the EC50 turned out to be 630 nM.

Still in this experiment, the particulars now being: Enterovirus D, EVD68, RD; CPE assay, EV-D68 US/MO/14-18947 in R.D. cells; read-out: Antiviral EC50.
Consider `CCC[C@@H](C#N)NC(=O)[C@@H]1[C@H]2CCC[C@H]2CN1C(=O)C(NC(=O)CC12CC3CC(CC(C3)C1)C2)C(C)(C)C` (stereo partly drawn) [Jun11191, (1S,3aR,6aS)-2-((S)-2-(2-((3S,5S,7S)-adamantan-1-yl)acetamido)-3,3-dimethylbutanoyl)-N—((S)-1-cyanobutyl) octahydro-cyclopenta[c]pyrrole-1-carboxamide], for which the EC50 worked out at 3920 nM.

The target in the next experiment is T1, EV-D68 2A^pro (WT-2A^pro, strain US/KY/14-18953, expressed in E. coli BL21(DE3) from pE-SUMOstar vector) (enterovirus D68, UniProt A0A097BW19).
T1 construct: E. coli-codon-optimised gene, pE-SUMOstar, His-SUMO tag (removed with SUMO protease for nontagged form), E. coli BL21(DE3), Ni-NTA; 7JRE is the C107A mutant
Put plainly: FRET-based enzymatic assay of EV-D68 2A^pro inhibition (FRET substrate Dabcyl-KIRIVNT/GPGFGGE-Edans). In kind it is biochemical.
Conditions: not given
Here is the method:
FIG. 4. […] Key structural variations compared to telaprevir were highlighted in red. Enzymatic inhibitory activity IC50 value was determined in the FRET-based assay. Antiviral EC50 value was determined in the CPE assay with EV-D68 US/MO/14-18947 in R.D. cells. Cytotoxicity CC50 value was determined using the neutral red uptake method in R.D. cells. The results are the mean±standard deviation of two independent experiments with three repeats in each experiment.
FIG. 5. […] Key structural variations compared to Jun8861 were highlighted in red. Enzymatic inhibitory activity IC50 value was determined in the FRET-based assay. Antiviral EC50 value was determined in the CPE assay with EV-D68 US/MO/14-18947 in R.D. cells. Cytotoxicity CC50 value was determined using the neutral red uptake method in R.D. cells. The results are the mean±standard deviation of two independent experiments with three repeats in each experiment.
Protein expression and purification. EV-D68 2A^pro gene from strain US/KY/14-18953 was ordered from Genscript (Piscataway, NJ) in pET28b(+) vector with E. coli codon optimization. 2A^pro gene was subcloned into pE-SUMOstar vector according to the manufacturers protocol. Plasmid encoding WT-2A^pro was transformed into BL21(DE3) competent E. coli cells, and a single colony was picked and used to inoculate 10 mL of L.B. grown supplemented with 50 μg/mL kanamycin at 37° C. at 250 rpm. The 10 mL inoculant was added to 1 L of L.B. with 50 μg/mL kanamycin and grown to an OD600 of 0.8-1.0, cooled to 18° C., then induced using 0.5 mM IPTG. Induced cultures were incubated at 18° C. for an additional 24 h, then harvested and resuspended in lysis buffer (25 mM Tris (pH 7.5); 750 mM NaCl, 2 mM DTT with 0.5 mg/mL lysozyme, 0.5 mM PMSF and 0.02 mg/mL DNase I) and lysed with alternating sonication and French press cycles. The cell debris were removed by centrifugation at 12,000×g for 45 min […]. The supernatant was incubated with Ni-NTA resin for over 2 h at 4° C. on a rotator. The Ni-NTA resin was thoroughly washed with 50 mM imidazole in wash buffer (50 mM Tris (pH 7.5), 150 mM NaCl, and 2 mM DTT); for the SUMO-tagged protein, the protein was directly eluted with 300 mM imidazole; for the nontagged 2A^pro Ni-NTA resin was treated with SUMO Protease 1 to remove the SUMO tag, then 2A^pro was washed off from the column with 10 mM imidazole in wash buffer. The imidazole was removed via dialysis or 10 K molecular weight cut-off centrifugal concentrator spin column. The purity of the protein was confirmed with SDS-PAGE. The protein concentration was determined by classic BCA assay using bovine serum albumin as a standard. EV-D68 3C^pro in pET28b(+) vector was expressed as previously described^10.
Peptide synthesis. The FRET substrate of EV-D68 2A^pro, Dabcyl-KIRIVNT/GPGFGGE-Edans, was synthesized using the Fmoc solid phase synthesis strategy.
Enzymatic assays. The reaction buffer contains 50 mM Tris (pH7.0), 150 mM NaCl, 10% Glycerol, and 2 mM DTT, and the reaction was carried out at 30° C. in Cytation 5 imaging reader (Fisher Scientific) with EX360/40-EM460/40 filter. Reactions were monitored every 90 sec. […] The reaction was initiated by adding 20 μM of FRET substrate, and the reaction was monitored for 2 hours and initial velocity was calculated for the first 30 minutes via linear regression.
On to `CCCC(NC(=O)C1C2CCCC2CN1C(=O)C(NC(=O)CC12CC3CC(CC(O)(C3)C1)C2)C(C)(C)C)C(=O)C(=O)NC1CC1` [Jun922, (1S,3aR,6aS)—N—((S)-1-(cyclopropylamino)-1,2-dioxohexan-3-yl)-2-((S)-2-(2-((1r,3R,5R,7S)-3-hydroxyadamantan-1-yl)acetamido)-3,3-dimethylbutanoyl)octa-hydrocyclopenta[c]pyrrole-1-carboxamide], for which the half-inhibitory concentration (IC50) – broadly, the concentration needed to halve the response being measured – worked out at 400 ± 50 nM. The same measure, in the same setting: with `CCCC(NC(=O)C1C2CCCC2CN1C(=O)C(NC(=O)CC1C2CC3CC(C2)CC1C3)C(C)(C)C)C(=O)C(=O)NC1CC1` [Jun1024, (1S)-2-((S)-2-(2-((1S,3S,5S,7S)-adamantan-2-yl)acetamido)-3,3-dimethylbutanoyl)-N—((S)-1-(cyclopropylamino)-1,2-dioxohexan-3-yl)octahydrocyclopenta[c]pyrrole-1-carboxamide] the figure was 120 ± 10 nM. The same measure, in the same setting: with `CCC[C@H](NC(=O)[C@@H]1[C@H]2CCC[C@H]2CN1C(=O)[C@@H](NC(=O)[C@@H](NC(=O)OCc1ccccc1)C1CCCCC1)C(C)(C)C)C(=O)C(=O)NC1CC1` [Jun7453, Benzyl ((S)-1-cyclohexyl-2-(((S)-1-((1S,3aR,6aS)-1-(((S)-1-(cyclopropylamino)-1,2-dioxohexan-3-yl)carbamoyl)hexahydrocyclopenta[c]pyrrol-2(1H)-yl)-3,3-dimethyl-1-oxobutan-2-yl)amino)-2-oxoethyl)carbamate] the figure was 360 ± 20 nM; with `COC[C@H](NC(=O)[C@@H]1[C@H]2CCC[C@H]2CN1C(=O)[C@@H](NC(=O)CC12CC3CC(CC(C3)C1)C2)C(C)(C)C)C(=O)C(=O)NC1CC1` [Jun11672, (1S,3aR,6aS)-2-((S)-2-(2-((3S,5S,7S)-adamantan-1-yl)acetamido)-3,3-dimethylbutanoyl)-N—((S)-4-(cyclopropylamino)-1-methoxy-3,4-dioxobutan-2-yl)octahydrocyclopenta[c]pyrrole-1-carboxamide], 120 ± 70 nM; with `CC(C)(C)C(NC(=O)CC12CC3CC(CC(C3)C1)C2)C(=O)N1CC2CCCC2C1C(=O)NC(C(=O)C(N)=O)C1CCCCC1` [Jun11725, (1S,3aR,6aS)-2-((S)-2-(2-((3S,5S,7S)-adamantan-1-yl)acetamido)-3,3-dimethylbutanoyl)-N—((S)-3-amino-1-cyclohexyl-2,3-dioxopropyl)octahydro-cyclopenta[c]pyrrole-1-carboxamide], 190 ± 20 nM.

Turning to `CC(C)(C)[C@H](NC(=O)CC12CC3CC(CC(C3)C1)C2)C(=O)N1C[C@@H]2CCC[C@@H]2[C@H]1C(=O)NC1(C(=O)C(=O)NC2CC2)CCCCC1` [Jun11805, (1S,3aR,6aS)-2-((S)-2-(2-((3S,5S,7S)-adamantan-1-yl)acetamido)-3,3-dimethylbutanoyl)-N-(1-(2-(cyclopropylamino)-2-oxoacetyl)cyclohexyl)octahydrocyclopenta[c]pyrrole-1-carboxamide], half-maximal inhibition (IC50) was put at 740 ± 140 nM. This IC50 lies about 3.9-fold higher than the previous one. The same measure, in the same setting: with `CC(C)(C)[C@H](NC(=O)CC12CC3CC(CC(C3)C1)C2)C(=O)N1C[C@@H]2CCC[C@@H]2[C@H]1C(=O)NC1(C(=O)C(=O)NC2CC2)CCC1` [Jun11806, (1S,3aR,6aS)-2-((S)-2-(2-((3S,5S,7S)-adamantan-1-yl)acetamido)-3,3-dimethylbutanoyl)-N-(1-(2-(cyclopropylamino)-2 oxoacetyl)cyclobutyl)octahydrocyclopenta[c]pyrrole-1-carboxamide] the figure was 4810 ± 810 nM. Turning to `CC(C)(C)[C@H](NC(=O)CC12CC3CC(CC(C3)C1)C2)C(=O)N1C[C@@H]2CCC[C@@H]2[C@H]1C(=O)N[C@H](C(=O)C(=O)NC1CC1)c1ccccc1` [Jun11817, (1S,3aR,6aS)-2-((S)-2-(2-((3S,5S,7S)-adamantan-1-yl)acetamido)-3,3-dimethylbutanoyl)-N—((S)-3-(cyclopropylamino)-2,3-dioxo-1-phenylpropyl)octahydrocyclopenta[c]pyrrole-1-carboxamide], the IC50 came to 230 ± 80 nM. This IC50 is about 21-fold lower than that of the molecule before.

In turn, `CC(C)(C)[C@H](NC(=O)CC12CC3CC(CC(C3)C1)C2)C(=O)N1C[C@@H]2CCC[C@@H]2[C@H]1C(=O)N[C@@H](Cc1ccsc1)C(=O)C(=O)NC1CC1` [Jun11818] showed an IC50 of 120 ± 20 nM. Against the preceding molecule, the IC50 is about 1.9-fold lower.

`CC(C)(C)[C@H](NC(=O)CC12CC3CC(CC(C3)C1)C2)C(=O)N1C[C@@H]2CCC[C@@H]2[C@H]1C(=O)N[C@H](C(=O)C(=O)NC1CC1)c1ccc(F)cc1` [Jun11861, (1S,3aR,6aS)-2-((S)-2-(2-((3S,5S,7S)-adamantan-1-yl)acetamido)-3,3-dimethylbutanoyl)-N—((S)-3-(cyclopropylamino)-1-(4-fluorophenyl)-2,3-dioxopropyl)octahydrocyclopenta[c]pyrrole-1-carboxamide] gave a 50% inhibitory concentration (IC50) of 350 ± 130 nM. This IC50 lies about 2.9-fold higher than the previous one.
